Target: T1, 5-HT2A receptor (Homo sapiens, UniProt P28223)
Assay: cell-based
Format: cell-based
Settings: EC50, 5-HT2A stimulation of IP-1 formation, mean ± sem

T1 sequence (P28223 whole entry): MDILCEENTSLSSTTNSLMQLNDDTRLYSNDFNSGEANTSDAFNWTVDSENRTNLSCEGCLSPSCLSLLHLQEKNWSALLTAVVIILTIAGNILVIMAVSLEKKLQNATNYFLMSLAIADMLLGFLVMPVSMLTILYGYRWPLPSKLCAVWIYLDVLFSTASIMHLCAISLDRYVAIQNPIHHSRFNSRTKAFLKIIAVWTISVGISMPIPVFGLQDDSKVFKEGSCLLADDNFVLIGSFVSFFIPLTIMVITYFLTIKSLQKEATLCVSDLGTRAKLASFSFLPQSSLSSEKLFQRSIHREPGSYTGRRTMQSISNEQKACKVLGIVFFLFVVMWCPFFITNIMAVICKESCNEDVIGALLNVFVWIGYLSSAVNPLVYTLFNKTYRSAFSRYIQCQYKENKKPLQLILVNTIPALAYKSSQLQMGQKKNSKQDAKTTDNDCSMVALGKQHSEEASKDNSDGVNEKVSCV

Q: With `COc1cc(CCNCc2ccccc2OC)c(OC)cc1C` [25D-NBOMe, 2-(2,5-dimethoxy-4-methylphenyl)-N-(2-methoxybenzyl)ethanamine] as the molecule, how does the EC50 read?
A: 1.53 ± 0.1 nM

Same assay, conditions: ratio of EC50 values

Q: Which results are given for `COc1cc(CCNCc2ccccc2OC)c(OC)cc1C` [25D-NBOMe, 2-(2,5-dimethoxy-4-methylphenyl)-N-(2-methoxybenzyl)ethanamine]?
A: Selectivity (functional ratios) 5-HT2A: 5-HT1A: 3900; Selectivity (functional ratios) 5-HT2A: 5-HT2B: 21; Selectivity (functional ratios) 5-HT2A: 5-HT2C: 0.90

Same assay, conditions: read-out: % maximum stimulation, 5-HT2A stimulation of IP-1 formation

Q: How did the Emax turn out when `COc1cc(CCNCc2ccccc2OC)c(OC)cc1C` [25D-NBOMe, 2-(2,5-dimethoxy-4-methylphenyl)-N-(2-methoxybenzyl)ethanamine] was run?
A: 95.1%

Target: T2, hDAT (Homo sapiens, UniProt Q01959)
Assay: Inhibition of [^3H]DA uptake by HEK-hDAT cells
Format: cell-based
Settings: not given

T2 sequence (Q01959 whole entry): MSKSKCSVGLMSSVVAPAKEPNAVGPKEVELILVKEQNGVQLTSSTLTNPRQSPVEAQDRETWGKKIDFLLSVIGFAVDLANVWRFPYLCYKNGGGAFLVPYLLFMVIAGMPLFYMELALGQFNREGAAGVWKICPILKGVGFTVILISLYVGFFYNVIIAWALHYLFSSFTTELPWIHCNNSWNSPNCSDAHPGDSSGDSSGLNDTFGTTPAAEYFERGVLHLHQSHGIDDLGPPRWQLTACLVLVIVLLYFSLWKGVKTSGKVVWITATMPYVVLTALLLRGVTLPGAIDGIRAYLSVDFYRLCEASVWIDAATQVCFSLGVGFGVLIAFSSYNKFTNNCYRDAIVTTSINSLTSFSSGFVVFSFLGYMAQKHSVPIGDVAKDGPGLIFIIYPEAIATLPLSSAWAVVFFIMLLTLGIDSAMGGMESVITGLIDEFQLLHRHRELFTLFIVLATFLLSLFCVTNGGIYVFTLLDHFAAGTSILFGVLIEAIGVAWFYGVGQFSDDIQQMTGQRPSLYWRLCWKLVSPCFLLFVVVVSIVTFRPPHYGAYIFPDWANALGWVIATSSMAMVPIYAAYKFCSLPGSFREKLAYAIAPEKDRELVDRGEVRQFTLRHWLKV

Q: How did the IC50 turn out when `COc1cc(CCNCc2ccccc2OC)c(OC)cc1C` [25D-NBOMe, 2-(2,5-dimethoxy-4-methylphenyl)-N-(2-methoxybenzyl)ethanamine] was run?
A: > 85000 nM

Target: T3, hNET (Homo sapiens, UniProt P23975)
Assay: Release of preloaded [^3H]NE from HEK-hNET cells
Format: cell-based
Settings: not given

T3 sequence (P23975 whole entry): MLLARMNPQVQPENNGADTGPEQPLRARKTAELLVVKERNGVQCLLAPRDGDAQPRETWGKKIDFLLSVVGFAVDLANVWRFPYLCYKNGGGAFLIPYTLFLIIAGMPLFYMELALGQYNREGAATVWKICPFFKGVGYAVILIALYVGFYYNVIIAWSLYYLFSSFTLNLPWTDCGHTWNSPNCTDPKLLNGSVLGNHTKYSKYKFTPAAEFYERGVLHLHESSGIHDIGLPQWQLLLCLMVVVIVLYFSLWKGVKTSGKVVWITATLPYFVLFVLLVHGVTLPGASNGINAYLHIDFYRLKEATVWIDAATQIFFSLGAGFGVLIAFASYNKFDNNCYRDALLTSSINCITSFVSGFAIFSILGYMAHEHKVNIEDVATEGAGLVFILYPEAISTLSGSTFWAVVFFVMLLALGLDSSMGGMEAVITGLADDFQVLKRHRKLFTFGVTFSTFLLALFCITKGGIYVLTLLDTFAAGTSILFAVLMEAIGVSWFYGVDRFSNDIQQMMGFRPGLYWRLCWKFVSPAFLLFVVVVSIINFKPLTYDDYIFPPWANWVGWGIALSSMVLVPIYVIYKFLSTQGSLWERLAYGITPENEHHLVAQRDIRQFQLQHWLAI

Q: Which EC50 does the source give for `COc1cc(CCNCc2ccccc2OC)c(OC)cc1C` [25D-NBOMe, 2-(2,5-dimethoxy-4-methylphenyl)-N-(2-methoxybenzyl)ethanamine] here?
A: > 33000 nM

Same assay, conditions: relative to maximum release induced by METH (0.3–1 μM)

Q: For `COc1cc(CCNCc2ccccc2OC)c(OC)cc1C` [25D-NBOMe, 2-(2,5-dimethoxy-4-methylphenyl)-N-(2-methoxybenzyl)ethanamine], which “% maximum release, hNET [^3H]NE” value is on record?
A: 14.3 ± 8.5%

Target: T2, hDAT
Assay: Inhibition of [^125I]RTI-55 binding to hDAT
Settings: not given

Q: With `COc1cc(CCNCc2ccccc2OC)c(OC)cc1C` [25D-NBOMe, 2-(2,5-dimethoxy-4-methylphenyl)-N-(2-methoxybenzyl)ethanamine] as the molecule, how does the Ki read?
A: 34500 ± 4200 nM

Target: T4, 5-HT2B receptor (Homo sapiens, UniProt P41595)
Assay: 5-HT2B receptor [^3H]5-HT binding
Settings: not given

T4 sequence (P41595 whole entry): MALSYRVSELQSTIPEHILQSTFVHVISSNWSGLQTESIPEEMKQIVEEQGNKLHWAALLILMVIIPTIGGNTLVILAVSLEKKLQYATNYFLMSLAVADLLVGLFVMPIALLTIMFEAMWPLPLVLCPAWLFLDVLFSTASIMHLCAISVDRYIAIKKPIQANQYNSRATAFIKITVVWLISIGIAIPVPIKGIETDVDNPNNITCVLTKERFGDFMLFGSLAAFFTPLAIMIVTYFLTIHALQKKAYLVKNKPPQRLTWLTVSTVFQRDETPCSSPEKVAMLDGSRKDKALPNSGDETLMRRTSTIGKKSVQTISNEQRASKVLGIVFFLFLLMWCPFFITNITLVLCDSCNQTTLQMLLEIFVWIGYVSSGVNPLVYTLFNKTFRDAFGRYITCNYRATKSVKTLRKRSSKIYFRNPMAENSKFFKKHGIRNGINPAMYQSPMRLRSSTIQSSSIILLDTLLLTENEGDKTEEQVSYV

Q: For `COc1cc(CCNCc2ccccc2OC)c(OC)cc1C` [25D-NBOMe, 2-(2,5-dimethoxy-4-methylphenyl)-N-(2-methoxybenzyl)ethanamine], which Ki is on record?
A: 2.05 ± 0.49 nM

Target: T3, hNET
Assay: biochemical
Format: binding
Settings: not given

Q: For `COc1cc(CCNCc2ccccc2OC)c(OC)cc1C` [25D-NBOMe, 2-(2,5-dimethoxy-4-methylphenyl)-N-(2-methoxybenzyl)ethanamine], which Ki is on record?
A: 6700 ± 1300 nM

Target: T4, 5-HT2B receptor
Assay: 5-HT2B receptor inositol monophosphate
Format: cell-based
Settings: not given

Q: With `COc1cc(CCNCc2ccccc2OC)c(OC)cc1C` [25D-NBOMe, 2-(2,5-dimethoxy-4-methylphenyl)-N-(2-methoxybenzyl)ethanamine] as the molecule, how does the EC50 read?
A: 32.3 ± 6.8 nM

Same assay, conditions: read-out: % maximum stimulation, 5-HT2B stimulation of IP-1 formation

Q: For `COc1cc(CCNCc2ccccc2OC)c(OC)cc1C` [25D-NBOMe, 2-(2,5-dimethoxy-4-methylphenyl)-N-(2-methoxybenzyl)ethanamine], which Emax is on record?
A: 47.7%

Target: T5, human 5-HT1A receptor (Homo sapiens, UniProt P08908)
T5 sequence (P08908 1-422): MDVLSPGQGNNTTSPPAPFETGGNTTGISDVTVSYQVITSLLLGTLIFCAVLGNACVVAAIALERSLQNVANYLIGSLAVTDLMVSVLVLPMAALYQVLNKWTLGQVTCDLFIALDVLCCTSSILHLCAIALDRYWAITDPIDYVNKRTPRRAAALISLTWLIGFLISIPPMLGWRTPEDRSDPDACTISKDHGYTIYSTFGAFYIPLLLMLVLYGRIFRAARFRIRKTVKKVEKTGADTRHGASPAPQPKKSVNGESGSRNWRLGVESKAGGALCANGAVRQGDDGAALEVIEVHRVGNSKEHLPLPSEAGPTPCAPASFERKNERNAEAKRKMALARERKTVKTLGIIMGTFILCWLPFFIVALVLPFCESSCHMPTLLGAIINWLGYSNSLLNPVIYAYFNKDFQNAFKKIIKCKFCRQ
Assay: 5-HT1A receptor [^3H]8-OH-DPAT radioligand binding
Settings: not given

Q: For `COc1cc(CCNCc2ccccc2OC)c(OC)cc1C` [25D-NBOMe, 2-(2,5-dimethoxy-4-methylphenyl)-N-(2-methoxybenzyl)ethanamine], which Ki is on record?
A: 4510 ± 730 nM

Target: T3, hNET
Assay: cell-based
Settings: not given

Q: How did the IC50 turn out when `COc1cc(CCNCc2ccccc2OC)c(OC)cc1C` [25D-NBOMe, 2-(2,5-dimethoxy-4-methylphenyl)-N-(2-methoxybenzyl)ethanamine] was run?
A: 1170 ± 140 nM

Target: T6, hSERT (Homo sapiens, UniProt P31645)
Assay: Inhibition of [^3H]5-HT uptake by HEK-hSERT cells
Format: cell-based
Settings: not given

T6 sequence (P31645 whole entry): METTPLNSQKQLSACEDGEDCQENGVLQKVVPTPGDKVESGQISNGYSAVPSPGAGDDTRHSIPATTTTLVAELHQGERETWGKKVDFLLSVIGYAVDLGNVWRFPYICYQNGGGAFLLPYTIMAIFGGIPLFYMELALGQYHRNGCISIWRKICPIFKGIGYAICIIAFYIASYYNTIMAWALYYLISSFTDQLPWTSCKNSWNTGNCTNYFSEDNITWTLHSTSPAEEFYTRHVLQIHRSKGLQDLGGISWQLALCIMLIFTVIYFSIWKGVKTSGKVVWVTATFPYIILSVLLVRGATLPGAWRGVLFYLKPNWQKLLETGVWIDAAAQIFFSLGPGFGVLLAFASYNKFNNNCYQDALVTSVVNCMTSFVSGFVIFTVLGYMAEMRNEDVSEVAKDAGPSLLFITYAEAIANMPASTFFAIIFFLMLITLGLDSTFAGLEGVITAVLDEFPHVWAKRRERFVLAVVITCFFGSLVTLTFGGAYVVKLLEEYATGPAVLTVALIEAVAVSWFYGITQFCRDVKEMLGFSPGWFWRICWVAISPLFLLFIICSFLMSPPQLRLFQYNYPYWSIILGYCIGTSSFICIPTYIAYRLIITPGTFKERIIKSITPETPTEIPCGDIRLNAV

Q: Which IC50 does the source give for `COc1cc(CCNCc2ccccc2OC)c(OC)cc1C` [25D-NBOMe, 2-(2,5-dimethoxy-4-methylphenyl)-N-(2-methoxybenzyl)ethanamine] here?
A: 1020 ± 78 nM

Target: T5, human 5-HT1A receptor
Assay: 5-HT1A receptor [^35S]GTPγS binding stimulation
Format: biochemical
Settings: not given

Q: Which EC50 does the source give for `COc1cc(CCNCc2ccccc2OC)c(OC)cc1C` [25D-NBOMe, 2-(2,5-dimethoxy-4-methylphenyl)-N-(2-methoxybenzyl)ethanamine] here?
A: 5900 ± 1900 nM

Same assay, conditions: read-out: % maximum stimulation, 5-HT1A stimulation of [^35S]GTPγS binding

Q: `COc1cc(CCNCc2ccccc2OC)c(OC)cc1C` [25D-NBOMe, 2-(2,5-dimethoxy-4-methylphenyl)-N-(2-methoxybenzyl)ethanamine] was tested. Which Emax did it give?
A: 55%

Target: T2, hDAT
Assay: Release of preloaded [^3H]DA from HEK-hDAT cells
Format: cell-based
Settings: not given

Q: Which EC50 does the source give for `COc1cc(CCNCc2ccccc2OC)c(OC)cc1C` [25D-NBOMe, 2-(2,5-dimethoxy-4-methylphenyl)-N-(2-methoxybenzyl)ethanamine] here?
A: > 100000 nM

Same assay, conditions: relative to maximum release induced by METH (1–10 μM)

Q: For `COc1cc(CCNCc2ccccc2OC)c(OC)cc1C` [25D-NBOMe, 2-(2,5-dimethoxy-4-methylphenyl)-N-(2-methoxybenzyl)ethanamine], which “% maximum release, hDAT [^3H]DA” value is on record?
A: 0.75 ± 0.48%

Target: T7, 5-HT2C receptor (Homo sapiens, UniProt P28335)
T7 sequence (P28335 33-458): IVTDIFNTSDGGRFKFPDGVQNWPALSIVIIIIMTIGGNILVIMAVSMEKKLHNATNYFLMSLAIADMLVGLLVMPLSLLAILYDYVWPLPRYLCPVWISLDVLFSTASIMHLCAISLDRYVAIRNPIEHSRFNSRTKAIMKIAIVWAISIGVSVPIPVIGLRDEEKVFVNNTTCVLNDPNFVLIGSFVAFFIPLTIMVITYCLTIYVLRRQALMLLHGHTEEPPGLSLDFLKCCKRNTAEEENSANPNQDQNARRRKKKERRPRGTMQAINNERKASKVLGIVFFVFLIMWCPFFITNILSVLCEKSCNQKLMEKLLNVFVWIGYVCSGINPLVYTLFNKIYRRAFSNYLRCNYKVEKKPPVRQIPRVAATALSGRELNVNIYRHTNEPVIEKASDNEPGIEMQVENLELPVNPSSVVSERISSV
Assay: cell-based
Settings: not given

Q: `COc1cc(CCNCc2ccccc2OC)c(OC)cc1C` [25D-NBOMe, 2-(2,5-dimethoxy-4-methylphenyl)-N-(2-methoxybenzyl)ethanamine] was tested. Which EC50 did it give?
A: 1.37 ± 0.36 nM

Same assay, conditions: read-out: % maximum stimulation, 5-HT2C stimulation of IP-1 formation

Q: For `COc1cc(CCNCc2ccccc2OC)c(OC)cc1C` [25D-NBOMe, 2-(2,5-dimethoxy-4-methylphenyl)-N-(2-methoxybenzyl)ethanamine], which Emax is on record?
A: 96.1%

Target: T6, hSERT
Assay: Release of preloaded [^3H]5-HT from HEK-hSERT cells
Format: cell-based
Settings: not given

Q: Which EC50 does the source give for `COc1cc(CCNCc2ccccc2OC)c(OC)cc1C` [25D-NBOMe, 2-(2,5-dimethoxy-4-methylphenyl)-N-(2-methoxybenzyl)ethanamine] here?
A: > 100000 nM

Same assay, conditions: relative to maximum release induced by METH (0.3–1 mM)

Q: For `COc1cc(CCNCc2ccccc2OC)c(OC)cc1C` [25D-NBOMe, 2-(2,5-dimethoxy-4-methylphenyl)-N-(2-methoxybenzyl)ethanamine], which “% maximum release, hSERT [^3H]5-HT” value is on record?
A: 0.59 ± 0.24%

Target: T1, 5-HT2A receptor
Assay: biochemical
Format: binding
Settings: not given

Q: Which Ki does the source give for `COc1cc(CCNCc2ccccc2OC)c(OC)cc1C` [25D-NBOMe, 2-(2,5-dimethoxy-4-methylphenyl)-N-(2-methoxybenzyl)ethanamine] here?
A: 0.22 ± 0.026 nM

Same assay, conditions: ratio of Ki values

Q: What does the source list for `COc1cc(CCNCc2ccccc2OC)c(OC)cc1C` [25D-NBOMe, 2-(2,5-dimethoxy-4-methylphenyl)-N-(2-methoxybenzyl)ethanamine]?
A: Selectivity (binding ratios) 5-HT2A : 5-HT1A: 20500; Selectivity (binding ratios) 5-HT2A : 5-HT2B: 9.3; Selectivity (binding ratios) 5-HT2A : 5-HT2C: 3.1

Target: T6, hSERT
Assay: Inhibition of [^125I]RTI-55 binding to hSERT
Settings: not given

Q: For `COc1cc(CCNCc2ccccc2OC)c(OC)cc1C` [25D-NBOMe, 2-(2,5-dimethoxy-4-methylphenyl)-N-(2-methoxybenzyl)ethanamine], which Ki is on record?
A: 1780 ± 280 nM

Reference: article PMC6298744 (Biochemical pharmacology, 2018)
